US11474106B2, “Methods for cytotoxic chemotherapy-based predictive assays” (ACCELERATED MEDICAL DIAGNOSTICS, INC., priority 2015, dated 2022)

Legend:
5637 [1] = test: Oxaliplatin-DNA adduct formation and repair by AMS; type: cell-based, human
Protocol: (§1) To characterize the oxaliplatin-DNA adduct frequency in these cell lines, cells from each cell line were seeded in 60-mm dishes at a density of 1×10^6 cells/dish and allowed to attach overnight in a 37° C. humidified atmosphere containing 5% CO2. […] The cells were then washed twice with phosphate-buffered solution (PBS) and maintained thereafter with oxaliplatin-free culture media. DNA was harvested at hours 0, 2, 4, 8, 24, 28 and 48 hours using a Promega Wizard DNA Purification Kit. Ten micrograms of DNA per sample was converted to graphite and measured by AMS for ^14C quantification. Triplicate sets of AMS experiments were performed and the data was plotted as time vs oxaliplatin-DNA adducts per 10^8 nt.
(§2) Statistics were calculated with n=3 for each cell line. ANOVA analysis of IC50 and AUC data were based on a one-sided t-test.

5637R [2] = test: Oxaliplatin-DNA adduct formation and repair by AMS; type: cell-based, human
Protocol: as §1, §2

cancer patients = test: Patient toxicity related to the microdose; type: in vivo, human; details: IV microdose, 2.0×10^6 DPM/kg
Protocol: Radiolabeled carboplatin containing C^14 carbon atoms in the cyclobutane dicarboxylic acid group was formulated for human use as a sterile, pyrogen free solution at 5 mg/mL in water. […] Microdoses of the [^14C]Carboplatin were administered to human cancer patients as a diagnostic reagent, followed by full dose platinum-based chemotherapy and evaluation of response. Within four weeks of the [^14C]carboplatin microdose, these patients received standard of care chemotherapy for their disease, which included either carboplatin or cisplatin. […] Toxicity of the [^14C]carboplatin diagnostic reagent administered as a microdose was assessed using Common Terminology Criteria for Adverse Events (CTCAE).
The dose of carboplatin in the diagnostic microdose was chosen to be sub-toxic and non-therapeutic, to minimize patient chemical and radiation exposure, and to result in AMS measurable carboplatin-DNA monoadducts. Nineteen patients have been administered at least one microdose of [^14C]carboplatin via IV infusion as a diagnostic reagent. Patient toxicity related to the microdose was monitored from the time of IV microdose until the patients received their first chemotherapy.

[3] = type: physicochemical; details: 0.5 mg/mL in water
Protocol: Radiolabeled carboplatin containing C^14 carbon atoms in the cyclobutane dicarboxylic acid group was formulated for human use as a sterile, pyrogen free solution at 5 mg/mL in water.

[4] = Human plasma pharmacokinetics of oxaliplatin microdose; type: in vivo; details: metastatic breast cancer patient, IV microdose
Protocol: Single agent oxaliplatin chemotherapy is given by IV at a personalized dose of 130 mg/m^2 of body surface area using the Du Bois and Du Bois formula (Du Bois, D., and E. F. Du Bois. “A formula to estimate the approximate surface area if height and weight be known. 1916.” Nutrition (Burbank, Los Angeles County, Calif.) 5.5 (1989): 303).
Radiolabeled oxaliplatin containing C^14 carbon atoms in the cyclohexane ring was formulated for human use as a sterile, pyrogen free solution at 0.5 mg/mL in water. […] Unlabeled oxaliplatin and [^14C]oxaliplatin were mixed just before dosing to achieve the required microdose, and injected through the peripheral vein at one arm. Peripheral blood specimens were drawn into BD Vacutainer CPT' tubes with sodium heparin from the other arm at specific time points before and after the administration of the microdose. Plasma samples collected at −5 min, 5 min, 15 min, 30 min, 2 h, 4 h, 8 h, 24 h, and 48 h post microdose injection were analyzed by liquid scintillation counting (FIG. 17A).

PBMC = test: Microdose-induced oxaliplatin-DNA adduct frequency by AMS; type: in vivo, human
Protocol: The plasma samples were additionally processed to isolate PBMC, and the DNA was extracted and analyzed using AMS to calculate the oxaliplatin-DNA adduct frequency (both monoadducts and diadducts combined) (FIG. 17B). […] These adduct levels then decrease substantially out to 48 hours post microdosing. […] Overall, the plasma PK and time course of oxaliplatin-DNA adduct formation and repair in PBMC allowed determination of the best time to dose patients prior to biopsy in order to maximize the oxaliplatin-DNA adduct formation, allow for repair in those patients with high repair capacity, minimize the risk of radioactive contamination of PBMC and tumor samples, and also minimize the risk of radioactive contamination of the operating room by blood-borne radiocarbon.
Plasma samples were collected, filtered, and counted by liquid scintillation counting to determine plasma oxaliplatin levels. […] The range of microdose-induced adduct levels (frequencies) for the three colorectal patients was 0.1-6 adducts per 10^8 nt.

[5] = tested on: five bladder cancer cell lines (5637, T24, TCCSUP, HT1197, and J82); test: Oxaliplatin-DNA adducts by AMS in cell culture; type: cell-based
Protocol: (§3) The cell lines were purchased from the American Type Culture Collection (ATCC, Manassas, Va.) and cultured in the recommended media.
as §1, with “Cells” for “To characterize the oxaliplatin-DNA adduct frequency in these cell lines, cells from each cell line”, “24” for “24, 28 and 48”, “the modified” for “a Promega”, “procedure described previously.” for “DNA Purification Kit.”, “nt. […] Oxaliplatin-DNA monoadducts could be detected in all cell lines at all time points. […] Therefore, drug-DNA damage from microdoses of oxaliplatin are predictive of the extent of DNA modification caused by the therapeutic dose in cell culture.” for “nt.”

5637 [6] = test: MTT assay (IC50); type: cell-based, human; details: Homo sapiens, 72 hours
Protocol: Thus, we measured the IC50 of the six NSCLC cell lines from Example 2 to both cisplatin and carboplatin to determine if the sensitivity of these six NSCLC cell lines to the two drugs are correlated.
as §3
(§4) Drug-DNA adduct formation and repair was measured by accelerator mass spectrometry.
(§5) These two cell lines were also cultured with a range of concentrations of cisplatin, carboplatin, gemcitabine, doxorubicin, methotrexate and vinblastine for 72 hours to determine IC50 for these other drugs (FIG. 16C). These drugs were chosen because of their frequent use in the treatment of bladder cancer.

5637R [7] = test: MTT assay (IC50); type: cell-based; details: Homo sapiens, 72 hours
Protocol: as §4
To confirm that 5637 was the original ATCC cell line, and that 5637R originated from the parental 5637 cell line, both cultures were sent to the ATCC Cell Line Authentication Service for cell verification per the ATCC protocol. More specifically, fifteen short tandem repeat (STR) loci plus the gender determining locus, amelogenin, were amplified using the commercially available PowerPlex® 16HS Kit from Promega.
as §5

[8] = cited from earlier work
[9] = Human plasma pharmacokinetics of carboplatin microdose, liquid scintillation counting; type: in vivo; details: four patients
Protocol: Although the pharmacokinetics of carboplatin are well known for therapeutic doses, it is not known if human pharmacokinetic parameters obtained using a microdose of carboplatin will track those obtained with therapeutic carboplatin dosing. […] This is a requirement for this diagnostic assay to be predictive of response to a therapeutic dose. The pharmacokinetics of microdose carboplatin were also measured in several different patients along with the kinetics of carboplatin-DNA monoadduct formation and repair in PBMC to establish that 24 hours post administration of a microdose of carboplatin is an appropriate time for sampling a patient for this predictive diagnostic assay.
Two of the bladder cancer patients received two doses of [^14C]carboplatin, including the initial diagnostic microdose and a second microdose at the time of full therapeutic dose. This allowed us to compare the pharmacokinetics of carboplatin in plasma after both microdosing and therapeutic dosing (FIG. 11A). […] Therefore, microdosing and therapeutic dosing yield similar carboplatin pharmacokinetics in human patients.
The pharmacokinetics of carboplatin administered as a microdose was assessed in four patients (two with bladder cancer and two with NSLC) for the purpose of comparing interpatient variability and establishing the optimum time point for tumor biopsy sample acquisition.

A549 tumor xenograph = test: Tumor response to therapeutic carboplatin in xenograft; type: in vivo, nude mice; details: single IV 37.3 mg/kg, 14 days
Description: (§6) Xenograft mouse tumors consisting of one carboplatin resistant and one sensitive tumor type were established for in vivo evaluation of carboplatin-DNA monoadduct formation and repair in tumor tissue and for in vivo evaluation of tumor response to therapeutic dosing with carboplatin. Tumor xenografts were established in 1-2 month old nude mice by injecting approximately one million cells into the left and right flanks, and allowed to develop tumors of less than 1 cm^3 over approximately 4 weeks prior to DNA adduct studies. Mice bearing resistant and sensitive tumors were exposed to either a microdose or therapeutic dose of carboplatin by tail vein injection. DNA isolated from tumor tissue was evaluated for carboplatin-DNA monoadduct frequency levels as a function of time. For tumor response, mice bearing resistant and sensitive tumors were therapeutically treated with a single IV injection of 37.3 mg/kg of carboplatin and then examined for tumor growth as assessed by measuring palpable tumors with a caliper and calculating tumor volume.
(§7) Mice xenografted with sensitive (H232A) and resistant (A549) lung cancer cell lines were infused with a therapeutic dose of carboplatin to assess tumor response. The tumors were measured daily over 14 days post infusion (FIG. 10C). Tumor size was normalized as the ratio of tumor diameter to the tumor diameter measured on day 0 (no change=1.0). […]

H23 2A tumor xenograph = test: as above; type: in vivo, nude mice; details: H23 2A xenograph; single IV 37.3 mg/kg; 14 days
Description: as §6, §7

[10] = 24 hour culture without oxaliplatin
[11] = 5637 (parental, Example 11), MTT

N[C@@H]1CCCC[14C@H]1N.O=C([O-])C(=O)[O-].[Pt+2] [[^14C]oxaliplatin]
oxaliplatin-DNA adducts at 24 hours (5637 [1]; 10 μM for 24 hours): 710.0±32.2 adducts per 10^8 nucleotide
repair rate 5637 [1, 10]: 1.34±0.30 adducts per 10^8 nucleotides-hour
area under curve (AUC) of oxaliplatin-DNA adducts (5637 [1]; 48 hour study time period): 27,720±2,985 adducts per 10^8 nucleotide-hour
oxaliplatin-DNA adducts at 24 hours (5637R [2]; 10 μM for 24 hours): 259.2±37.3 adducts per 10^8 nucleotide
repair rate (5637R [2]; [10]): 3.48±0.15 adducts per 10^8 nucleotide-hour
area under curve (AUC) of oxaliplatin-DNA adducts (5637R [2]; 48 hour study time period): 9,426±2457 adducts per 10^8 nucleotide-hour
tolerability of the radiolabeled microdose (cancer patients): well tolerated
stability to freeze/thaw [3]: stable to free/thaw with no observed precipitation
loss of radiopurity per year ([3]; storage at −20° C.): < 2%
T1/2 (α), first (fast) phase [4]: 13.3 min
maximum oxaliplatin-DNA adducts in PBMC (PBMC; metastatic breast cancer patient, microdose, first 4 hours): 8 adducts per 10^8 nt
range of microdose-induced adduct levels (frequencies) (PBMC; three colorectal patients, PBMC): 0.1-6 adducts per 10^8 nt
DNA damage concentrations (total oxaliplatin-DNA adducts) ([5]; microdose, 0.1 μM oxaliplatin for 4 hours): 50-100 oxaliplatin-DNA adducts per 10^8 nt
DNA damage concentrations (total oxaliplatin-DNA adducts) ([5]; therapeutic dose, 10 μM oxaliplatin for 4 hours): 5,000-10,000 oxaliplatin-DNA adducts per 10^8 nt

COc1cccc2c1C(=O)c1c(O)c3c(c(O)c1C2=O)C[C@@](O)(C(=O)CO)C[C@@H]3O[C@H]1C[C@H](N)[C@H](O)[C@H](C)O1 [doxorubicin]
IC50 5637 [6, 11]: 290 nM
IC50 (5637R [7]; MTT): 270 nM

CN(Cc1cnc2nc(N)nc(N)c2n1)c1ccc(C(=O)N[C@@H](CCC(=O)O)C(=O)O)cc1 [methotrexate]
IC50 5637 [6, 11]: 2010 nM
IC50 (5637R [7]; MTT): 1240 nM

O=C1[O][Pt]2([NH][C@@H]3CCCC[C@H]3[NH]2)[O]C1=O [oxaliplatin, reference compound]
Cmax ([8]; therapeutically treated patients, read-out: plasma Cmax): ~10 µM

Nc1ccn([C@@H]2O[C@H](CO)[C@@H](O)C2(F)F)c(=O)n1 [gemcitabine]
IC50 5637 [6, 11]: 120 nM
IC50 (5637R [7]; MTT): 1440 nM

N.N.O=C([O-])C1(C(=O)[O-])CCC1.[Pt+2] [carboplatin]
time to clearance from the blood [9]: ≤ 24 h
tumor response (tumor growth) (A549 tumor xenograph): continued to grow
tumor response (tumor growth) (H23 2A tumor xenograph): did not display any growth
in vivo half-life in patients ([8]; in vivo): 78 to 360 min

CC[C@]1(O)C[C@@H]2CN(CCc3c([nH]c4ccccc34)[C@@](C(=O)OC)(c3cc4c(cc3OC)N(C)[C@H]3[C@@](O)(C(=O)OC)[C@H](OC(C)=O)[C@]5(CC)C=CCN6CC[C@]43[C@@H]65)C2)C1 [vinblastine]
IC50 5637 [6]; 5637: 0.6 nM
IC50 (5637R [7]): 0.61 nM
